According to US20230233576A1, “ECLITASERTIB FOR USE IN TREATING CONDITIONS INVOLVING SYSTEMIC HYPERINFLAMMATORY RESPONSE” (priority 2020, published 2023):

Test system: adult participants hospitalized for severe COVID-19
Assay: Phase 1b severe COVID-19 study: clinical laboratory abnormalities (PCSA)
Format: in vivo, human
Conditions: TEAE period
Protocol: Standard clinical laboratory parameters (hematology, blood chemistry) were measured per protocol.
For laboratory parameters (hematology, clinical chemistry, and urinalysis), vital signs, and ECG, incidences of potentially clinically significant abnormality (PCSA) values, actual values and change from baseline were summarized by treatment group.
For all laboratory, vital signs and ECG parameters, raw data and change from baseline were summarized in descriptive statistics by treatment group and scheduled time of measurement, with the exception of AST, ALT and alkaline phosphatase: instead of summarizing data in descriptive statistics, participants' profiles were presented through graphics by treatment group and with a color code to identify sites. The reason was that blood samples were processed by local laboratories with different normal ranges. For the rest of clinical laboratory these parameters it is reasonable to pool data as they are standard procedure and no significant differences in normal ranges were expected.

[1] = abnormal baseline (LLN/ULN or PCSA), 600 mg (N = 47), safety population
[2] = all baseline values counted in one unique group (as normal), 600 mg (N = 47), safety population
[3] = missing baseline, 600 mg (N = 47), safety population
[4] = normal baseline, 600 mg (N = 47), safety population

SMILES: CN1C(=O)[C@@H](NC(=O)c2nnc(Cc3ccccc3)[nH]2)COc2cccnc21 [RIPK1 Inhibitor, (S)-5-benzyl-N-(5-methyl-4-oxo-2,3,4,5-tetrahydropyrido[3,2-b][1,4]oxazepin-3-yl)-4H-1,2,4-triazole-3-carboxamide]
- participants with ALT>3 ULN (600 mg): 9 participants
- participants with ALT>5 ULN (600 mg): 1 participants
- participants with AST>5 ULN (600 mg): 1 participants
- participants with PCSAs of AST>3 ULN (600 mg): 2 participants
- participants with alkaline phosphatase>1.5 ULN (600 mg): 2 participants
- participants with total bilirubin>1.5 ULN (600 mg): One
- PCSA Alanine Aminotransferase (ALT) >3 ULN [1]: 7/20
- PCSA Alanine Aminotransferase (ALT) >5 ULN [1]: 0/20
- PCSA Alanine Aminotransferase (ALT) >10 ULN [1]: 0/20
- PCSA Alanine Aminotransferase (ALT) >20 ULN [1]: 0/20
- PCSA Albumin ≤25 g/L [1]: 0/28
- PCSA Alkaline Phosphatase >1.5 ULN [1]: 0/0
- PCSA Aspartate Aminotransferase (AST) >3 ULN [1]: 1/24
- PCSA Aspartate Aminotransferase (AST) >5 ULN [1]: 0/24
- PCSA Aspartate Aminotransferase (AST) >10 ULN [1]: 0/24
- PCSA Basophils >0.1 * 10^9/L [1]: 0/0
- PCSA C-Reactive Protein >2 ULN or >10 mg/L (if ULN not provided) [1]: 42/46
- PCSA Conjugated bilirubin >35% Bilirubin and Bilirubin >1.5 ULN [1]: 0/0
- PCSA Creatinine Clearance (CG) <15 mL/min (end stage renal disease) [1]: 0/18
- PCSA Creatinine Clearance (CG) ≥15-<30 mL/min (severe decrease in GFR) [1]: 0/18
- PCSA Creatinine Clearance (CG) ≥30-<60 mL/min (moderate decrease in GFR) [1]: 4/18
- PCSA Creatinine Clearance (CG) ≥60-<90 mL/min (mild decrease in GFR) [1]: 11/18
- PCSA Creatinine ≥150 μmol/L (Adults) [1]: 1/8
- PCSA Eosinophils >0.5 * 10^9/L or >ULN (if ULN ≥ 0.5 * 10^9/L) [1]: 0/9
- PCSA Erythrocyte Count (RBC) ≥6 * 10^12/L [1]: 1/17
- PCSA Glucose ≤3.9 mmol/L and <LLN [1]: 1/33
- PCSA Glucose ≥11.1 mmol/L (unfasted); ≥7 mmol/L (fasted) [1]: 18/33
- PCSA Hematocrit ≤0.37 v/v (Male); ≤0.32 v/v (Female) [1]: 11/17
- PCSA Hematocrit ≥0.55 v/v (Male); ≥0.5 v/v (Female) [1]: 0/17
- PCSA Hemoglobin ≤115 g/L (Male); ≤95 g/L (Female) [1]: 4/18
- PCSA Hemoglobin ≥185 g/L (Male); ≥165 g/L (Female) [1]: 0/18
- PCSA Lymphocytes >4 * 10^9/L [1]: 2/11
- PCSA Monocytes >0.7 * 10^9/L [1]: 6/10
- PCSA Neutrophils <1.5 * 10^9/L (Non-Black); <1 * 10^9/L (Black) [1]: 0/8
- PCSA Platelet Count <100 * 10^9/L [1]: 1/11
- PCSA Platelet Count ≥700 * 10^9/L [1]: 1/11
- PCSA Potassium <3 mmol/L [1]: 0/7
- PCSA Potassium ≥5.5 mmol/L [1]: 1/7
- PCSA Sodium ≤129 mmol/L [1]: 0/8
- PCSA Sodium ≥160 mmol/L [1]: 0/8
- PCSA Total Bilirubin >1.5 ULN [1]: 0/2
- PCSA Total Bilirubin >2 ULN [1]: 0/2
- PCSA White blood cell count <3 * 10^9/L (Non-Black); <2 * 10^9/L (Black) [1]: 0/10
- PCSA White blood cell count ≥16 * 10^9/L [1]: 1/10
- PCSA Creatinine ≥30% change from baseline [2]: 3/47
- PCSA Creatinine ≥100% change from baseline [2]: 0/47
- PCSA Hemoglobin Decrease from baseline ≥20 g/L [2]: 4/47
- PCSA Alanine Aminotransferase (ALT) >3 ULN [3]: 0/0
- PCSA Alanine Aminotransferase (ALT) >5 ULN [3]: 0/0
- PCSA Alanine Aminotransferase (ALT) >10 ULN [3]: 0/0
- PCSA Alanine Aminotransferase (ALT) >20 ULN [3]: 0/0
- PCSA Albumin ≤25 g/L [3]: 0/0
- PCSA Alkaline Phosphatase >1.5 ULN [3]: 0/0
- PCSA Aspartate Aminotransferase (AST) >3 ULN [3]: 0/0
- PCSA Aspartate Aminotransferase (AST) >5 ULN [3]: 0/0
- PCSA Aspartate Aminotransferase (AST) >10 ULN [3]: 0/0
- PCSA C-Reactive Protein >2 ULN or >10 mg/L (if ULN not provided) [3]: 0/0
- PCSA Conjugated bilirubin >35% Bilirubin and Bilirubin >1.5 ULN [3]: 0/1
- PCSA Glucose ≤3.9 mmol/L and <LLN [3]: 0/3
- PCSA Glucose ≥11.1 mmol/L (unfasted); ≥7 mmol/L (fasted) [3]: 3/3
- PCSA Total Bilirubin >1.5 ULN [3]: 0/0
- PCSA Total Bilirubin >2 ULN [3]: 0/0
- PCSA Alanine Aminotransferase (ALT) >3 ULN [4]: 2/27
- PCSA Alanine Aminotransferase (ALT) >5 ULN [4]: 1/27
- PCSA Alanine Aminotransferase (ALT) >10 ULN [4]: 0/27
- PCSA Alanine Aminotransferase (ALT) >20 ULN [4]: 0/27
- PCSA Albumin ≤25 g/L [4]: 0/18
- PCSA Alkaline Phosphatase >1.5 ULN [4]: 2/46
- PCSA Aspartate Aminotransferase (AST) >3 ULN [4]: 1/23
- PCSA Aspartate Aminotransferase (AST) >5 ULN [4]: 1/23
- PCSA Aspartate Aminotransferase (AST) >10 ULN [4]: 0/23
- PCSA Basophils >0.1 * 10^9/L [4]: 3/29
- PCSA C-Reactive Protein >2 ULN or >10 mg/L (if ULN not provided) [4]: 0/1
- PCSA Conjugated bilirubin >35% Bilirubin and Bilirubin >1.5 ULN [4]: 0/46
- PCSA Creatinine Clearance (CG) <15 mL/min (end stage renal disease) [4]: 0/29
- PCSA Creatinine Clearance (CG) ≥15-<30 mL/min (severe decrease in GFR) [4]: 0/29
- PCSA Creatinine Clearance (CG) ≥30-<60 mL/min (moderate decrease in GFR) [4]: 0/29
- PCSA Creatinine Clearance (CG) ≥60-<90 mL/min (mild decrease in GFR) [4]: 5/29
- PCSA Creatinine ≥150 μmol/L (Adults) [4]: 0/39
- PCSA Eosinophils >0.5 * 10^9/L or >ULN (if ULN ≥ 0.5 * 10^9/L) [4]: 1/20
- PCSA Erythrocyte Count (RBC) ≥6 * 10^12/L [4]: 0/30
- PCSA Glucose ≤3.9 mmol/L and <LLN [4]: 1/10
- PCSA Glucose ≥11.1 mmol/L (unfasted); ≥7 mmol/L (fasted) [4]: 5/10
- PCSA Hematocrit ≤0.37 v/v (Male); ≤0.32 v/v (Female) [4]: 4/30
- PCSA Hematocrit ≥0.55 v/v (Male); ≥0.5 v/v (Female) [4]: 0/30
- PCSA Hemoglobin ≤115 g/L (Male); ≤95 g/L (Female) [4]: 1/29
- PCSA Hemoglobin ≥185 g/L (Male); ≥165 g/L (Female) [4]: 0/29
- PCSA Lymphocytes >4 * 10^9/L [4]: 3/18
- PCSA Monocytes >0.7 * 10^9/L [4]: 12/19
- PCSA Neutrophils <1.5 * 10^9/L (Non-Black); <1 * 10^9/L (Black) [4]: 2/21
- PCSA Platelet Count <100 * 10^9/L [4]: 0/36
- PCSA Platelet Count ≥700 * 10^9/L [4]: 0/36
- PCSA Potassium <3 mmol/L [4]: 0/40
- PCSA Potassium ≥5.5 mmol/L [4]: 4/40
- PCSA Sodium ≤129 mmol/L [4]: 1/39
- PCSA Sodium ≥160 mmol/L [4]: 0/39
- PCSA Total Bilirubin >1.5 ULN [4]: 1/45
- PCSA Total Bilirubin >2 ULN [4]: 0/45
- PCSA White blood cell count <3 * 10^9/L (Non-Black); <2 * 10^9/L (Black) [4]: 1/37
- PCSA White blood cell count ≥16 * 10^9/L [4]: 2/37
